Assay results: ChEMBL document CHEMBL3885881, “DrugMatrix”

Organism: Rattus norvegicus
Assay: DrugMatrix - Regimen: Daily Repeat
Type: toxicity, organism-based, Sprague-Dawley
Design: regimen Daily Repeat, gender Male, age 6-8 weeks
Details: in vivo, po, route oral GAVAGE, […]; for ABSOLUTE BASOPHIL / ABSOLUTE EOSINOPHIL / ABSOLUTE LYMPHOCYTE / ABSOLUTE MONOCYTE / ABSOLUTE SEGMENTED NEUTROPHIL / BASOPHIL / EOSINOPHIL / ERYTHROCYTE COUNT / HEMATOCRIT / HEMOGLOBIN / LEUKOCYTE COUNT / LYMPHOCYTE / MEAN CORPUSCULAR HEMOGLOBIN / MEAN CORPUSCULAR HEMOGLOBIN CONCENTRATION / MEAN CORPUSCULAR VOLUME / MONOCYTE / NEUTROPHIL / NUCLEATED RED BLOOD CELLS / PLATELET COUNT: tissue Blood; for ALANINE AMINOTRANSFERASE / ALBUMIN / ALKALINE PHOSPHATASE / ASPARTATE AMINOTRANSFERASE / BLOOD UREA NITROGEN / CARBON DIOXIDE / CHLORIDE / CHOLESTEROL / CREATINE PHOSPHOKINASE / CREATININE / GLUCOSE / LACTATE DEHYDROGENASE / LIPASE / PHOSPHORUS / POTASSIUM / SODIUM / TOTAL BILIRUBIN / TOTAL PROTEIN / URIC ACID: tissue Plasma
[1] = 1 mg/kg, 120 h, dose level Low, time 5 day
[2] = 9 mg/kg, 72 h, dose level High, time 3 day
[3] = 9 mg/kg, 120 h, dose level High, time 5 day

O=C(O)COC(=O)Cc1ccccc1Nc1c(Cl)cccc1Cl [ACECLOFENAC]
ABSOLUTE BASOPHIL [1]: 0 CELLS/uL
ABSOLUTE EOSINOPHIL [1]: 38.33 CELLS/uL
ABSOLUTE LYMPHOCYTE [1]: 9464 CELLS/uL
ABSOLUTE MONOCYTE [1]: 76.67 CELLS/uL
ABSOLUTE SEGMENTED NEUTROPHIL [1]: 854.33 CELLS/uL
BASOPHIL [1]: 0%
EOSINOPHIL [1]: 0.33%
ERYTHROCYTE COUNT [1]: 5.79 x10E6/uL
HEMATOCRIT [1]: 35.33%
HEMOGLOBIN [1]: 13.3 G/DL
LEUKOCYTE COUNT [1]: 10.43 x10E3/uL
LYMPHOCYTE [1]: 90.67%
MEAN CORPUSCULAR HEMOGLOBIN [1]: 23 pg
MEAN CORPUSCULAR HEMOGLOBIN CONCENTRATION [1]: 37.7 G/DL
MEAN CORPUSCULAR VOLUME [1]: 61.07 fL
MONOCYTE [1]: 0.67%
NEUTROPHIL [1]: 8.33%
NUCLEATED RED BLOOD CELLS [1]: 0 /100WBC
PLATELET COUNT [1]: 1057.67 x10E3/uL
ALANINE AMINOTRANSFERASE [1]: 60.67 u/L
ALBUMIN [1]: 4.07 G/DL
ALKALINE PHOSPHATASE [1]: 388 u/L
ASPARTATE AMINOTRANSFERASE [1]: 80.67 u/L
BLOOD UREA NITROGEN [1]: 14.33 mg/dL
CARBON DIOXIDE [1]: 30.33 mmol/L
CHLORIDE [1]: 101.33 MEQ/L
CHOLESTEROL [1]: 53.33 mg/dL
CREATINE PHOSPHOKINASE [1]: 180.67 u/L
CREATININE [1]: 0.15 mg/dL
GLUCOSE [1]: 160.67 mg/dL
LACTATE DEHYDROGENASE [1]: 106 u/L
LIPASE [1]: 9 u/L
PHOSPHORUS [1]: 9.9 mg/dL
POTASSIUM [1]: 5.17 MEQ/L
SODIUM [1]: 143 MEQ/L
TOTAL BILIRUBIN [1]: 0.23 mg/dL
TOTAL PROTEIN [1]: 5.8 G/DL
URIC ACID [1]: 0.83 mg/dL
ABSOLUTE BASOPHIL [2]: 0 CELLS/uL
ABSOLUTE EOSINOPHIL [2]: 21.67 CELLS/uL
ABSOLUTE LYMPHOCYTE [2]: 7429.67 CELLS/uL
ABSOLUTE MONOCYTE [2]: 92.33 CELLS/uL
ABSOLUTE SEGMENTED NEUTROPHIL [2]: 1189.67 CELLS/uL
BASOPHIL [2]: 0%
EOSINOPHIL [2]: 0.33%
ERYTHROCYTE COUNT [2]: 5.12 x10E6/uL
HEMATOCRIT [2]: 32.1%
HEMOGLOBIN [2]: 12.63 G/DL
LEUKOCYTE COUNT [2]: 8.73 x10E3/uL
LYMPHOCYTE [2]: 84.67%
MEAN CORPUSCULAR HEMOGLOBIN [2]: 24.73 pg
MEAN CORPUSCULAR HEMOGLOBIN CONCENTRATION [2]: 39.37 G/DL
MEAN CORPUSCULAR VOLUME [2]: 62.73 fL
MONOCYTE [2]: 1.33%
NEUTROPHIL [2]: 13.67%
NUCLEATED RED BLOOD CELLS [2]: 0 /100WBC
PLATELET COUNT [2]: 823.33 x10E3/uL
ALANINE AMINOTRANSFERASE [2]: 57 u/L
ALBUMIN [2]: 3.37 G/DL
ALKALINE PHOSPHATASE [2]: 253 u/L
ASPARTATE AMINOTRANSFERASE [2]: 77.33 u/L
BLOOD UREA NITROGEN [2]: 10.67 mg/dL
CARBON DIOXIDE [2]: 34 mmol/L
CHLORIDE [2]: 99 MEQ/L
CHOLESTEROL [2]: 73.67 mg/dL
CREATINE PHOSPHOKINASE [2]: 625.67 u/L
CREATININE [2]: 0.12 mg/dL
GLUCOSE [2]: 160.67 mg/dL
LACTATE DEHYDROGENASE [2]: 163.33 u/L
LIPASE [2]: 8.67 u/L
PHOSPHORUS [2]: 11.57 mg/dL
POTASSIUM [2]: 6.06 MEQ/L
SODIUM [2]: 143.37 MEQ/L
TOTAL BILIRUBIN [2]: 0.13 mg/dL
TOTAL PROTEIN [2]: 5.3 G/DL
URIC ACID [2]: 1.03 mg/dL
ABSOLUTE BASOPHIL [3]: 0 CELLS/uL
ABSOLUTE EOSINOPHIL [3]: 0 CELLS/uL
ABSOLUTE LYMPHOCYTE [3]: 9903.33 CELLS/uL
ABSOLUTE MONOCYTE [3]: 435.33 CELLS/uL
ABSOLUTE SEGMENTED NEUTROPHIL [3]: 2861.33 CELLS/uL
BASOPHIL [3]: 0%
EOSINOPHIL [3]: 0%
ERYTHROCYTE COUNT [3]: 4.91 x10E6/uL
HEMATOCRIT [3]: 29.6%
HEMOGLOBIN [3]: 11.33 G/DL
LEUKOCYTE COUNT [3]: 13.2 x10E3/uL
LYMPHOCYTE [3]: 75.33%
MEAN CORPUSCULAR HEMOGLOBIN [3]: 23.1 pg
MEAN CORPUSCULAR HEMOGLOBIN CONCENTRATION [3]: 38.33 G/DL
MEAN CORPUSCULAR VOLUME [3]: 60.27 fL
MONOCYTE [3]: 3.33%
NEUTROPHIL [3]: 21.33%
NUCLEATED RED BLOOD CELLS [3]: 0.33 /100WBC
PLATELET COUNT [3]: 1272 x10E3/uL
ALANINE AMINOTRANSFERASE [3]: 58.33 u/L
ALBUMIN [3]: 3.03 G/DL
ALKALINE PHOSPHATASE [3]: 312 u/L
ASPARTATE AMINOTRANSFERASE [3]: 78.33 u/L
BLOOD UREA NITROGEN [3]: 12 mg/dL
CARBON DIOXIDE [3]: 28.33 mmol/L
CHLORIDE [3]: 101.67 MEQ/L
CHOLESTEROL [3]: 58.33 mg/dL
CREATINE PHOSPHOKINASE [3]: 296.67 u/L
CREATININE [3]: 0.2 mg/dL
GLUCOSE [3]: 165 mg/dL
LACTATE DEHYDROGENASE [3]: 151 u/L
LIPASE [3]: 10 u/L
PHOSPHORUS [3]: 10.13 mg/dL
POTASSIUM [3]: 5.79 MEQ/L
SODIUM [3]: 144.97 MEQ/L
TOTAL BILIRUBIN [3]: 0.13 mg/dL
TOTAL PROTEIN [3]: 5.03 G/DL
URIC ACID [3]: 1.1 mg/dL
